Values of other authors in US20230033410A1, “COMPLEX FORMULATION COMPRISING SITAGLIPTIN AND DAPAGLIFLOZIN, AND PREPARATION METHOD THEREFOR” (HANMI PHARM. CO.,LTD., priority 2019, published 2023).
Like-named read-outs stand apart in the source and are kept apart here.

Details: plasma

Row | Tmax (range in brackets) | Tmax (stated for both drugs) | Compound
1 | 1 to 4 h | about 1 hour | N[C@@H](CC(=O)N1CCn2c(nnc2C(F)(F)F)C1)Cc1cc(F)c(F)cc1F [sitagliptin, (R)-3-amino-1-(3-(trifluoromethyl)-5,6-dihydro-[1,2,4]triazolo[4,3-a]pyrazin-7(8H)-yl)-4-(2,4,5-trifluorophenyl)butan-1-one]
2 | 1 to 2 h | about 1 hour | CCOc1ccc(Cc2cc([C@@H]3O[C@H](CO)[C@@H](O)[C@H](O)[C@H]3O)ccc2Cl)cc1 [dapagliflozin, (2S,3R,4R,5S,6R)-2-[4-chloro-3-(4-ethoxybenzyl)phenyl]-6-(hydroxymethyl)tetrahydro-2H-pyran-3,4,5-triol]
